# Measurements from patent publication US12583889B2, “Cell penetrating peptides” (Oxford University Innovation Limited, priority 2017, dated 2026).
# Marks after values point to notes of the source that are not given here.
# Experiments:
# human SMN2-gene = test: Full-length SMN2 transcript qPCR in tissues of adult SMA mice after intravenous peptide-PMO conjugate; type: in vivo; conditions: for full-length SMN2 transcripts, mean expression level, Brainstem / full-length SMN2 transcripts, mean expression level, Cerebellum / full-length SMN2 transcripts, mean expression level, Cortex / full-length SMN2 transcripts, mean expression level, Liver / full-length SMN2 transcripts, mean expression level, Gastroc / full-length SMN2 transcripts, mean expression level, Quad / full-length SMN2 transcripts, mean expression level, TA / full-length SMN2 transcripts, mean expression level, Cervical / full-length SMN2 transcripts, mean expression level, Lumbar / full-length SMN2 transcripts, mean expression level, Thoracic: adult SMA mice, 2x15 mg/kg IV approx. 48 hours apart, tissue 7 days post final administration, normalised to saline treated controls; for full-length SMN2 transcripts, mean expression level, Brainstem / full-length SMN2 transcripts, mean expression level, Cerebellum / full-length SMN2 transcripts, mean expression level, Cortex: Central Nervous System; for full-length SMN2 transcripts, mean expression level, Liver: Off Target; for full-length SMN2 transcripts, mean expression level, Gastroc: Skeletal Muscle (gastrocnemius); for full-length SMN2 transcripts, mean expression level, Quad: Skeletal Muscle (quadriceps); for full-length SMN2 transcripts, mean expression level, TA: Skeletal Muscle (tibialis anterior); for full-length SMN2 transcripts, mean expression level, Cervical / full-length SMN2 transcripts, mean expression level, Lumbar / full-length SMN2 transcripts, mean expression level, Thoracic: spinal cord
# Excerpt: Smn1tm1Hung/wt; […]; […] Tissues were harvested one week post administration. […] Statistical significance determined by Student'[…]≤0.00005. […] ID NO.151), Exons 7-8 Rev: [NT] ID NO.152). […] [NT] ID NO.154). […] PolJ Forward: [NT] ID NO.155); PolJ Reverse: [NT]
# [1] = tested on: SMN2 exon 7 inclusion in GM03813 SMA patient fibroblasts; test: Cell screening of peptide-PMO conjugates for SMN2 exon 7 inclusion in human SMA patient fibroblast cell culture; type: cell-based; conditions: for cell activity (SMN2 exon 7 inclusion) relative to peptide 14: first screen, FIG. 4, qPCR; for cell activity (SMN2 exon 7 inclusion) relative to peptide 14 / cell activity (SMN2 exon 7 inclusion): 667 nM and 2 μM; for cell activity (SMN2 exon 7 inclusion): second screen, FIG. 5, qPCR; for cell activity (SMN2 exon 7 inclusion) relative to S* peptide: FIG. 6, 4 μM, 2 μM, 1 μM, 500 nM, 250 nM
# Experimental: In order to generate further peptide candidates containing a glycosylated Serine residue for in vivo evaluation, the inventors synthesized a range of similarly glycosylated peptides, conjugated them to the same PMO therapeutic and screened the resultant P-PMO conjugates in human SMA patient fibroblast cell culture, which assesses their ability to enter cell nuclei to give exon inclusion.
# GM03813 (Coriell Institute) derived from SMA type I patient fibroblast were seeded out at 2500 cells/well in 100 μl Dulbecco's modified Eagle's medium (DMEM) with GlutaMAX and 5% fetal bovine serum (FBS) (Life Technologies, Inc.) in 96 well plates, and incubated for 16 h in a cell culture incubator (37° C., 5% CO2, 100% rel. humidity). On the next day cells were then treated with 10 μl P-PMO at different concentrations (in water) in duplicate for 24 hours. After removal of the supernatant, cells were washed once with PBS-buffer and were lysed in lysis buffer (10 mM Tris, 3 mM MgCl2, 1 mM CaCl2), 1% Triton X-100, 200 u/ml DNase I and 200 u/ml Proteinase K) for 10 min. Afterwards the lysate were transferred into a 96-well plate (Eppendorf twintec) and incubated at 75° C. for 15 min and subsequently cooled to 4° C. and used immediately. The mRNA levels of SMN2 FL, SMN2 Δ7 and GAPDH were quantified using Taqman-based qRT-PCR (Superscript® III Platinium® One Step qRT-PCR, Thermo Fisher) and SMN2 specific Primers and probes (purchased from IDT Integrated DNA Technologies). (19) SMN2 FL and Δ7 mRNAs were normalized to GAPDH. […]
Substance,"full-length SMN2 transcripts, mean expression level, Brainstem (human SMN2-gene)","full-length SMN2 transcripts, mean expression level, Cerebellum (human SMN2-gene)","full-length SMN2 transcripts, mean expression level, Cortex (human SMN2-gene)","full-length SMN2 transcripts, mean expression level, Liver (human SMN2-gene)","full-length SMN2 transcripts, mean expression level, Gastroc (human SMN2-gene)","full-length SMN2 transcripts, mean expression level, Quad (human SMN2-gene)","full-length SMN2 transcripts, mean expression level, TA (human SMN2-gene)","full-length SMN2 transcripts, mean expression level, Cervical (human SMN2-gene)","full-length SMN2 transcripts, mean expression level, Lumbar (human SMN2-gene)","full-length SMN2 transcripts, mean expression level, Thoracic (human SMN2-gene)",cell activity (SMN2 exon 7 inclusion) relative to peptide 14 [1],also measured
Ac-RXRRBRRYQFLIRBRXR-B [Peptide 4],0.98,0.96,1.1,3.26,3.64****,2.70****,4.23****,1.14*,1,1.12,–,–
Ac-RXRRBRRQFLRBRXR-B [Peptide 5],1.22,1,1.11,2.73,2.49****,2.46****,2.80****,1.24*,1.25*,1.23,–,–
Ac-RBRRBRRRS*FLRBRBRBR-G [Peptide 36],–,–,–,–,–,–,–,–,–,–,without a large loss in cell activity,–
Ac-RXRRBRRXRYQFLIRXRBRXR-B [Peptide 1],1.48***,1.25*,1.29**,2.81,3.03***,3.37***,3.30***,1.50***,1.28***,1.45***,–,–
Ac-RS*RRBRRBRBRXR-G [Peptide 59],–,–,–,–,–,–,–,–,–,–,–,cell activity (SMN2 exon 7 inclusion) [1]: no significant alteration in activity levels
Ac-RXRXRS*RXRXR-G [Peptide 71],–,–,–,–,–,–,–,–,–,–,–,cell activity (SMN2 exon 7 inclusion) [1]: remarkably good activity
Ac-RBRRBRRBRS*FLRBRBR-G [Peptide 29],–,–,–,–,–,–,–,–,–,–,less active than the first peptide 14,–
Ac-RBRRRRRS*FLRBRBRBR-G [Peptide 37],–,–,–,–,–,–,–,–,–,–,without a large loss in cell activity,–
Ac-RXRRBRRFLRBRXR-B [Peptide 6],1.38**,1.05,1.13,2.78,3.22****,2.89***,–,0.88**,1.23*,1.37*,–,–
Ac-RXRRBRRZS*RBRXR-B [Peptide 73],–,–,–,–,–,–,–,–,–,–,–,"cell activity (SMN2 exon 7 inclusion) at low doses ([1]; third screen, FIG. 6): good activity at low doses; cell activity (SMN2 exon 7 inclusion) relative to S* peptide ([1]; third screen): greatly improved alteration in activity levels"
Ac-RBRBRS*RBRBR-G [Peptide 70],–,–,–,–,–,–,–,–,–,–,–,cell activity (SMN2 exon 7 inclusion) [1]: remarkably good activity
Ac-RXRRBRRFQILYRBRXR-B [Peptide 3],0.86,1.025,0.93,4.57,3.4,3.35****,3.95***,0.92,1.1,1,–,–
Ac-RXRRBRRS*S*S* RBRXR-G [Peptide 68],–,–,–,–,–,–,–,–,–,–,–,cell activity (SMN2 exon 7 inclusion) [1]: retained good activity in cells
Ac-RRBRRBRS*FLRBRBRBR-G [Peptide 24],–,–,–,–,–,–,–,–,–,–,less active than the first peptide 14,–
Ac-RXRRBRRFS^1*RBRXR-B [Peptide 74],–,–,–,–,–,–,–,–,–,–,–,cell activity (SMN2 exon 7 inclusion) relative to S* peptide ([1]; third screen): Improved activity
Ac-RRBRS*FLRBRBRBR-G [Peptide 26],–,–,–,–,–,–,–,–,–,–,slightly less active only,–
Ac-RXRRBRRXRS*FRXRBRXR-G [Peptide 43],–,–,–,–,–,–,–,–,–,–,only a slightly reduced activity,–
Ac-RXRRBRFQILYRBRXR-B [Peptide 7],1.11,0.97,1.01,3.19,2.92****,2.80****,3.34****,1.26,0.97,1.33,–,–
Ac-RBRRBRRBR S*FL RBRBRBR-G [Peptide 18],–,–,–,–,–,–,–,–,–,–,no significant effect on cell activity,–
Ac-RXRRBRRXRRXRBRXRS*FL-G [Peptide 48],–,–,–,–,–,–,–,–,–,–,almost as active as the first peptide,–
Ac-RBRRBRRBRS*FLRBRBRR-G [Peptide 33],–,–,–,–,–,–,–,–,–,–,without a large loss in cell activity,–
Ac-RXRRBRRXRQFLRXRBRXR-B [Peptide 2],1.36***,1.15*,1.16*,2.91,2.98****,2.52****,3.45****,1.78**,1.48**,1.49*,–,–
Ac-RXRRBRRXR S*FLRXRBRXR-BB [Peptide 14],1.97***,1.26,1.50*,3.45,2.82****,2.45***,3.24****,1.23**,2.23,2.38**,–,"cell penetration in several compartments of the central nervous system and the skeletal muscle compared with currently available peptides 1-7 (human SMN2-gene; Table 3 data): increased; increase in cell penetration / exon inclusion compared with the currently available peptide conjugated to the same antisense oligonucleotide (human SMN2-gene; in vivo, Table 3 data, peptide 17 versus peptide 6, peptide 14 versus peptide 2): up to 59.7%"
